# US20250387379A1, “ARYL-ANILINE AND HETEROARYL-ANILINE COMPOUNDS FOR TREATMENT OF SKIN CANCERS” (NFLECTION THERAPEUTICS, INC., priority 2018, published 2025)
# Test system: not given
# Assay: not given
# Details: topical application; cited from earlier work
row,SMILES,patients who experienced at least 1 adverse event ranging from mild to severe
1,O=c1[nH]cc(F)c(=O)[nH]1 [5-fluorouracil],≤ 97%
2,"CC(C)Cn1cnc2c(N)nc3ccccc3c21 [imiquimod, Imiquimod]",Up to 100%

# Test system: skin tumors
# Assay: not given
# Details: oral; trametinib 2 mg/kg/day, cobimetinib 10 mg/kg/day; chronic, low-dose, solar simulated UV light; cited from earlier work
row,SMILES,reduction of skin tumors
1,O=C(c1ccc(F)c(F)c1Nc1ccc(I)cc1F)N1CC(O)([C@@H]2CCCCN2)C1 [cobimetinib],effective in reducing skin tumors
2,CC(=O)Nc1cccc(-n2c(=O)n(C3CC3)c(=O)c3c(Nc4ccc(I)cc4F)n(C)c(=O)c(C)c32)c1 [trametinib],effective in reducing skin tumors

# Test system: cutaneous squamous-cell carcinoma tumors
# Assay: not given
# Details: topical delivery
row,SMILES,body weight loss of treated mice
1,Cn1c(Nc2ccc(I)cc2F)c(C(=O)NOCCO)c2cccnc21 [Compound 2.003],none of the mice lost weight

# Same assay, conditions: topical gel 0.01%, 0.15%, 0.5% by weight, 30 day course of treatment, first 12 mice
row,SMILES,tumor formation versus topical vehicle (placebo)
1,Cn1c(Nc2ccc(I)cc2F)c(C(=O)NOCCO)c2cccnc21 [Compound 2.003],mice treated with the topical vehicle (placebo) formed substantially more tumors than those treated with Compound 2.003 at all concentrations

# Same assay, conditions: topical gel 0.5%, 0.15%, 0.01%, FIG. 5
row,SMILES,tumor induction (new tumors per mouse)
1,Cn1c(Nc2ccc(I)cc2F)c(C(=O)NOCCO)c2cccnc21 [Compound 2.003],completely suppress tumor induction

# Same assay, conditions: topical gel 0.5%, 0.15%, 0.01%, FIG. 6
row,SMILES,size of existing tumors (tumor volume per mouse)
1,Cn1c(Nc2ccc(I)cc2F)c(C(=O)NOCCO)c2cccnc21 [Compound 2.003],reduce the size of existing tumors

# Target: MAP2K1 (MEK1) (Homo sapiens (Human), UniProt Q02750)
# Sequence (Q02750 whole entry): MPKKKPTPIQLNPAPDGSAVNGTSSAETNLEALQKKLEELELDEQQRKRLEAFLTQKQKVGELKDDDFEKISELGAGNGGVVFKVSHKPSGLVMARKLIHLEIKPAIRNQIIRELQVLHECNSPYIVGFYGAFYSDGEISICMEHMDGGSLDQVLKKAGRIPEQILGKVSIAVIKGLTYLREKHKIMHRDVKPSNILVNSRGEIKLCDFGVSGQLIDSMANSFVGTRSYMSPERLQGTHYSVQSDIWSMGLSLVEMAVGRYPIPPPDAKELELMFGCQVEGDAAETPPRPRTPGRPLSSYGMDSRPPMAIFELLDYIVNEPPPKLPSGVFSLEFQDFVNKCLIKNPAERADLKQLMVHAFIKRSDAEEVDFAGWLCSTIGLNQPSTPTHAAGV
# Assay: MEK Inhibition Assay-2 (Z'-LYTE biochemical assay; Example 5)
# Details: Table 6, Z'-LYTE procedure of Example 5; read-out: IC50 against MEK1
# Description: MEK1 inhibitory activity of compounds were tested using the following procedure (protocol available at thermofisher.com/content/dam/LifeTech/migration/files/drug-discovery/pdfs.par.60256.file.dat/20130430%20ssbk%20customer%20protocol%20and%20assay%20conditions.pdf). The Z′-LYTE biochemical assay (ThermoFisher) employs a fluorescence-based, coupled-enzyme format and is based on the differential sensitivity of phosphorylated and non-phosphorylated peptides to proteolytic cleavage.
# Test compounds in 100% DMSO were screened in 1% DMSO (final) in the well. For 10 point titrations, 3-fold serial dilutions are conducted from the starting concentration of 30 μM.
# After the 1 hour incubation, 5 μL of a 1:1024 dilution of Development Reagent A (available from Invitrogen, catalog no. PV3295) was added.
# ATP solutions were diluted to a 4× working concentration in Kinase Buffer (50 mM HEPES pH 7.5, 0.01% BRIJ-35, 10 mM MgCl2, 1 mM EGTA). ATP Km apparent was previously determined using a Z′-LYTE assay. The Development Reagent was diluted in Development Buffer (available from Invitrogen, catalog no. P3127).
# Assay Protocol: 2.5 μL of 4× test compound or 100 nL of 100× Test Compound plus 2.4 μL Kinase Buffer, 5 μL of the 2× Peptide/Kinase Mixture, 2.5 μL of 4×ATP Solution were added to the plates and placed on a shake plate for 30-seconds. The kinase reaction was allowed to proceed for 60-minute at room temperature, before 5 μL of Development Reagent Solution was added, and the mixture agitated for 30-seconds on a shake plate. The mixture was incubated for 60-minute at room temperature. Fluorescence was measured using a plate reader and the data were analyzed.
# This control yielded 100% cleaved peptide in the Development Reaction. The 100% Phosphorylation Control, which consisted of a synthetically phosphorylated peptide of the same sequence as the peptide substrate, was designed to allow for the calculation of percent phosphorylation. This control yielded a very low percentage of cleaved peptide in the Development Reaction. The 0% Phosphorylation and 100% Phosphorylation Controls allow for the calculation of the percent phosphorylation achieved in a specific reaction well.
# The minimum emission ratio in a screen was established by the 0% Inhibition Control, which contained active kinase. This control was designed to produce a 10-50% phosphorylated peptide in the Kinase Reaction. Cascade assays may produce up to 70% phosphorylated peptide.
# A known inhibitor control standard curve, 10 point titration, was run for each individual kinase on the same plate as the kinase to ensure the kinase was inhibited within an expected IC50 range previously determined.
# The following controls are prepared for each concentration of Test Compound assayed. […] The expected value for a non-interfering compound should be 100%. Any value outside of 90% to 110% was flagged. […] The expected value for a non-fluorescence compound should be 0%. Any value >20% was flagged.
# The data in Table A was calculated. XLfit from IDBS was used. The dose response curve was curve fit to model number 205 (sigmoidal dose-response model).
row,IC50,SMILES
1,> 1500 nM,N#Cc1ccc(C(=O)N2CC(O)C2)c(Nc2ccc(I)cc2F)c1 [Compound 1.002]
2,≤ 150 nM,O=C1CCCc2c1sc(Nc1ccc(I)cc1F)c2C(=O)NC[C@@H](O)CO [Compound 4.035]
3,≤ 150 nM,O=C1CCCc2c1sc(Nc1ccc(I)cc1F)c2C(=O)NOCC1CC1 [Compound 4.032]
4,≤ 150 nM,N#Cc1ccc(C(=O)NOCC2CC2)c(Nc2ccc(I)cc2F)c1F [Compound 1.031]
5,≤ 150 nM,O=C1CCCc2c1sc(Nc1ccc(I)cc1F)c2C(=O)NOC[C@H](O)CO [Compound 4.030]
6,≤ 150 nM,N#Cc1ccc(C(=O)NO)c(Nc2ccc(I)cc2F)c1 [Compound 1.017]
7,≤ 150 nM,N#Cc1ccc(C(=O)NOCCO)c(Nc2ccc(I)cc2F)c1F [Compound 1.030]
8,> 1500 nM,O=C(O)Cn1ccc2cncc(Nc3ccc(I)cc3F)c2c1=O [Compound 5.004]
9,≤ 150 nM,N#Cc1ccc(C(=O)NOCCO)c(Nc2ccc(I)cc2F)c1 [Compound 1.010]
10,> 1500 nM,COC(=O)Cn1ccc2cncc(Nc3ccc(I)cc3F)c2c1=O [Compound 5.005]
11,≤ 150 nM,O=c1c2c(Nc3ccc(I)cc3F)cncc2ccn1C[C@@H](O)CO [Compound 5.001]
12,≤ 150 nM,O=C1CCCc2c1sc(Nc1ccc(I)cc1F)c2C(=O)NC[C@H](O)CO [Compound 4.034]
13,> 1500 nM,COC(=O)CCONC(=O)c1ccc(C#N)cc1Nc1ccc(I)cc1F [Compound 1.022]
14,≤ 150 nM,NCCONC(=O)c1c(Nc2ccc(I)cc2F)sc2c1CCCC2=O [Compound 4.033]
15,≤ 150 nM,O=C1CCCc2c1sc(Nc1ccc(I)cc1F)c2C(=O)NOCCO [Compound 4.029]
16,≤ 150 nM,O=c1c2c(Nc3ccc(I)cc3F)cncc2ccn1C[C@H](O)CO [Compound 5.002]
